What is called IC50 is the concentration needed to halve the response being measured.

The source of these data is US6303612A, “Derivatives of hydroxyphenylsulfanylbenzoic and hydroxphenylsulfanylarylacetic acids” (Leciva, A.S., priority 1998, dated 2001).

Assay [1] addresses LTB4 receptor (Cavia porcellus, UniProt H0VYV8). Nature of the assay: LTB4 receptor binding study. Conditions: 3H-LTB4, guinea-pig spleen membranes; for inhibition at 20 µM: read-out: Inh. of LTB4 rec. binding, %; for IC50: read-out: Inh. of LTB4 rec. binding, IC50. The procedure, abridged: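 Male guinea-pig spleen membranes (2 mg) incubated with 0.3 nM ^3H-LTB4 for 30 min at 25 °C; nonspecific binding defined with 0.1 μM LTB4. Bound ligand collected by GF/C filtration, counted by liquid scintillation to give specific binding.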

Assay [2] concerns bronchospasm induced by histamine liberator 48/80. Nature of the assay: Inhibition of bronchospasm induced by histamine liberator 48/80. Format: in vivo. As to conditions: dose 100 mg/kg. As to the method:
(§1) Inhibition of Allergic Bronchospasm Induced by […] (Compound 48/80 or Ovalbumin, Respectively)
(§2) The modified method of Kreutner W. et al (Krelutner W. et al.: Agents Actions 28, 253 (1989)) was used. Bronchoconstrictioin was induced by intravenous injection of 1 μg/kg LTD4 (3 mg/kg of compound […] or 0.35 mg/kg of ovalbumin, respectively). In the case of oval-bumin, the animals were senzitized by intraperitoneal injection of ovalbumin (100 mg/kg) 14 days before induction. The compounds tested were applied 5 min before the administration of the inductor; the vehiculum used for the application of compound tested was administered to the control group of animals. The tracheal pressure was determined in the intervals of 2, 4 and 10 minutes after induction. The effect was expressed in percentage inhibition of bronchospasm relative to the untreated control.

Assay [3] deals with T1, LTD4 receptor (Cavia porcellus, UniProt Q2NNR5).
T1 construct: The membrane fraction was prepared from male guinea-pig lungs; from tissue; host or cells: male guinea-pig lung membranes
T1 sequence (Q2NNR5 1-340): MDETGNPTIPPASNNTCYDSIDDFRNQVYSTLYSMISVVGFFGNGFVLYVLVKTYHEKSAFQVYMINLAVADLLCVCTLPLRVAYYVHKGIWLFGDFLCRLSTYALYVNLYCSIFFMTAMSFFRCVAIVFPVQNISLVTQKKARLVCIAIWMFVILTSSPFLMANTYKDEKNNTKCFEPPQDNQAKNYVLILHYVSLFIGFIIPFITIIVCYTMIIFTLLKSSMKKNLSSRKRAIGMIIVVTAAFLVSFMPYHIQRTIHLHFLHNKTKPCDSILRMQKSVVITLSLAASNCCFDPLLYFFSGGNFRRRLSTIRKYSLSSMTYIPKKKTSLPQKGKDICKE
Description: LTD4 receptor binding study. As to conditions: 3H-LTD4, guinea-pig lung membranes; for IC50: read-out: Inh. of LTD4 rec. binding, IC50; for inhibition at 100 µM: read-out: Inh. of LTD4 rec. binding, %. The procedure, abridged:
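Guinea-pig lung membranes (male animals) were incubated with 0.4 nM ³H-LTD4 for 60 min at 25 °C. Nonspecific binding was defined with 0.1 μM LTD4. Bound radioactivity was measured after filtration and washing.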

Assay [4] relates to bronchospasm induced by ovalbumin. Nature of the assay: Inhibition of bronchospasm induced by ovalbumin. The format is in vivo. As to the method: as §1, §2
Assay [5] relates to LTB4 production in rat polymorphonuclear cells. Description: Ex vivo inhibition of LTB4 production (LTB4 biosynthesis). The format is cell-based. As to conditions: for IC50: Rattus norvegicus, read-out: Inh. of LTB4 biosynth., IC50; for Inh. of LTB4 biosynth., %: at 30 μg (%/μg).
Assay [6] deals with bronchospasm induced by LTD4. Nature of the assay: Inhibition of bronchospasm induced by LTD4. Format: in vivo. As to the method: as §1, §2
For assay [7], the system named is peroxidation of lipids from the hepatic cells membranes. Nature of the assay: Antioxidant effect in vitro. The format is biochemical. Conditions: at 100 μg. The text has this: Antioxidant Effect in vitro
The end-product, malonic dialdehyde, was transformed to coloured complex with thiobarbituric acid and determined spectrophotometrically. The antioxidant effect was expressed in % of peroxidation inhibition in the presence of the compound tested in comparison to a control sample.

For assay [8], the system named is rats. Description: Inhibition of carrageenan-induced pleuritis in rats. The format is in vivo. Conditions: dose 100 mg/kg, oral, values with mark n: p > 0.05; for inhibition in vivo at 100 mg/kg: Rattus norvegicus, po, 4 h. The procedure, abridged:
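Rats given test drug as single oral dose 1 h before intrapleural 0.5% carrageenan (1 ml) under light ether anaesthesia. Pleural exudate collected 4 h later; volume, cellularity and total cell count measured.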

Assay [9] deals with male mice. Nature of the assay: Inhibition of arachidonic acid-induced ear inflammation in mice. The format is in vivo. Conditions: for inhibition in vivo at 200 mg/kg: Mus musculus, po, 1 h. In a few lines: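 Compounds given orally 1 h before ear inflammation was induced in male mice with 20 µl arachidonic acid in acetone (100 mg/ml). Animals killed 1 h after induction. Ear hyperemia and ear-lobe weight assessed against the vehicle-treated contralateral ear.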

In assay [10] the test system is Wistar-Han rats. Nature of the assay: Inhibition of carrageenan edema. As to conditions: dose 100 mg/kg; for inhibition in vivo at 100 mg/kg: Rattus norvegicus, read-out: CE: inhibition of carrageenan-induced edema, % of inh. The format is in vivo.
Setting [11] is: read-out: Experimental pleuritis, A: volume of exudate in pleural cavity, % of inh.
Where [12] appears, read: read-out: Experimental pleuritis, B: number of cells, % of inh.
Setting [13] is: read-out: Experimental pleuritis, C: cellularity in a volume unit, % of inh.
The mark [14] stands for this setting: values with mark n: p > 0.05, read-out: Ear edema, D: edema of ear lobe, % of inh.
Where [15] appears, read: values with mark n: p > 0.05, read-out: Ear edema, E: hyperemia of ear lobe, % of inh.
Where [16] appears, read: dose 200 mg/kg, oral, values with mark n: p > 0.05, 200 mg/kg.

In brackets after ≈: the same amount, converted by molar mass. Read-outs that look alike come from different tables or passages of the source. Bounds are passed on as bounds.

Sequence of LTB4 receptor (H0VYV8 1-348): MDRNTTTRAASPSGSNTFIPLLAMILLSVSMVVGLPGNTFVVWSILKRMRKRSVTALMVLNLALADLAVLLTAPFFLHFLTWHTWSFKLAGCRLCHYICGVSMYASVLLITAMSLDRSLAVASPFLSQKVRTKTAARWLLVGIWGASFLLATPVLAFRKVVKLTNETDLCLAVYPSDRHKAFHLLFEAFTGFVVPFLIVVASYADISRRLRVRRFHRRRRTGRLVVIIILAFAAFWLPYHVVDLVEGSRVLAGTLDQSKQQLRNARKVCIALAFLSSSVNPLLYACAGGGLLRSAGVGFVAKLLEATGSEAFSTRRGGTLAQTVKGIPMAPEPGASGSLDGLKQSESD

For the molecule `O=C(O)c1ccccc1Sc1ccc(OCCCN2CCN(Cc3ccc(Cl)cc3)CC2)cc1` [Compound 13, Dimethanesulfonate of 2-(4-(3-(1-(4-Chlorobenzyl)piperazin-4-yl)-propoxy)phenylsulfanyl)benzoic Acid], in assay [1] (at 20 μM), the inhibition at 20 µM came out at 28%. The “Inhibition of bronchospasm induced by histamine liberator 48/80” value in [2] (2 min) worked out at 84%; in assay [2] (4 min), 82%; in assay [2] (10 min), 69%. Also, the values for the IC50 in assay [3] and in assay [5] were 41 µM and 7.6 µg/mL, respectively. The inhibition at 100 µM in [3] was found to be 79%. Moreover, the inhibition in vivo at 100 mg/kg in assay [4] (2 min) was 46%; in assay [4] (4 min), 35%; in [4] (10 min), 51%; in assay [6] (2 min), 6%; in [6] (4 min) it was 38%; in [6] (10 min), 54%. The “Inh. of LTB4 biosynth., %” value in [5] is reported as 100%.

Turning to `O=C(O)c1ccccc1Sc1ccc(OCc2ccc3ccccc3n2)cc1` [Compound 19, 2-(4-(Quinoline-2-ylmethoxy)phenylsulfanyl)benzoic Acid], the “Antiox. effect, % of peroxidation inhibition” value in [7] worked out at 10%. The inhibition in vivo at 100 mg/kg in assay [8] (setting [11]) is 17%; in [8] (setting [12]) it was 23%; in assay [8] (setting [13]) it was 6%; in assay [4] (2 min), 21%; in assay [4] (4 min), 27.3%; in [10], 13%. Further, the results for the inhibition in vivo at 100 mg/kg in [6] (2 min), in [6] (4 min) and in assay [6] (10 min) were 14%, 33% and 43%, respectively. Besides, the inhibition in vivo at 200 mg/kg in assay [9] (setting [14]) was found to be 20%; in assay [9] (setting [15]), 5%. For the same molecule, the half-inhibitory concentration (IC50) in assay [1] turned out to be 70.3 µM; in [3] it was 1.7 µM; in assay [5] it was 0.13 µg/mL (≈ 0.336 µM). Further, the inhibition at 20 µM in [1] (at 20 μM) is 34%. Moreover, in assay [3], the inhibition at 100 µM turned out to be 100%. Further, in assay [5], the “Inh. of LTB4 biosynth., %” value stood at 100%.

As to `O=C(O)c1ccc(Sc2ccc(OCc3ccc4ccccc4n3)cc2)cc1` [Compound 16], the “Antiox. effect, % of peroxidation inhibition” value in [7] came to 13%. Besides, the inhibition in vivo at 100 mg/kg stood at 26% in assay [8] (setting [11]); 33% in [8] (setting [12]); 11% in assay [8] (setting [13]); 41% in assay [4] (2 min); 45% in [4] (4 min); 63% in assay [4] (10 min). For the same molecule, the inhibition in vivo at 100 mg/kg in assay [10] was determined as 25%; in assay [6] (2 min), 69%; in [6] (4 min), 70.8%. In addition, the figures for the inhibition in vivo at 200 mg/kg in assay [9] (setting [14]) and in [9] (setting [15]) were 27% and 3%, respectively. Also, the concentration for half-maximal inhibition (IC50) in [1] is 91.6 µM; in assay [3], 0.024 µM. Moreover, the “Inh. of LTB4 rec. binding, %” value in assay [1] (at 20 μM) turned out to be 19%. For the same molecule, the inhibition at 100 µM in [3] worked out at 100%. For the same molecule, in [5], the “Inh. of LTB4 biosynth., IC50” value was found to be 0.004 µg/mL. The “Inh. of LTB4 biosynth., %” value in assay [5] is recorded as 98%.

Take `O=C(O)c1ccccc1Sc1cccc(OCCCN2CCN(Cc3ccc(Cl)cc3)CC2)c1` [Compound 12, Bis-hydrogenmaleate of 2-(3-(3-(1-(4-Chlorobenzyl)piperazin-4-yl)propoxy)-phenylsulfanyl)benzoic Acid]: the “Antiox. effect, % of peroxidation inhibition” value in assay [7] is reported as 17%. The inhibition in vivo at 200 mg/kg amounted to 18% in [9] (setting [14]) and 7% in assay [9] (setting [15]). Also, the IC50 in assay [1] is 7.1 µM; in assay [3], 16 µM; in assay [5] it was below 0.01 µg/mL. The inhibition at 20 µM in assay [1] (at 20 μM) is 85%. For the same molecule, the “Inhibition of bronchospasm induced by histamine liberator 48/80” value is 77% in assay [2] (2 min), 78% in assay [2] (4 min) and 85% in [2] (10 min). Also, the inhibition at 100 µM in [3] is 69%. Further, the inhibition in vivo at 100 mg/kg in assay [4] (2 min) was 71%; in [4] (4 min) it was 73%; in assay [4] (10 min) it was 90%; in assay [10] it was 27%; in assay [6] (2 min), 9%; in [6] (4 min) it was 41%. The molecule further yielded an inhibition in vivo at 100 mg/kg in [6] (10 min) of 60%. Moreover, the “Inh. of LTB4 biosynth., %” value in assay [5] is 100%.

For the molecule `O=C(O)c1ccccc1Sc1cccc(OCc2ccc3cc(Cl)ccc3n2)c1` [Compound 20, 2-(3-(6-Chloroquinoline-2-ylmethoxy)phenylsulfanyl)benzoic Acid], the “Antiox. effect, % of peroxidation inhibition” value in assay [7] is reported as 1%. The inhibition in vivo at 100 mg/kg in [8] (setting [11]) worked out at 15%; in assay [8] (setting [12]), 19%; in assay [4] (2 min), 66%; in [4] (4 min) it was 72%; in assay [4] (10 min) it was 85%; in assay [6] (2 min), 6%. For the same molecule, the inhibition in vivo at 100 mg/kg turned out to be 38% in assay [6] (4 min) and 54% in assay [6] (10 min). The “Experimental pleuritis, C: cellularity in a volume unit, % of inh.” value in assay [8] (100 mg/kg) was determined as 4%. For the same molecule, in assay [9] (setting [16]), the “Ear edema, D: edema of ear lobe, % of inh.” value stood at 12%. The “Ear edema, E: hyperemia of ear lobe, % of inh.” value in [9] (setting [16]) stood at 0%. Besides, the IC50 worked out at 31.3 µM in assay [1] and 0.27 µM in assay [3]. In addition, the inhibition at 20 µM in assay [1] (at 20 μM) is 31%. In addition, the inhibition at 100 µM in assay [3] came out at 100%. For the same molecule, in assay [10], the “CE: inhibition of carrageenan-induced edema, % of inh.” value was determined as 25%. The “Inh. of LTB4 biosynth., IC50” value in [5] amounted to 0.035 µg/mL. Also, the “Inh. of LTB4 biosynth., %” value in assay [5] stood at 99%.
